Test system: rat
Test: measurement of the cauda equina blood flow and the blood pressure in urethane-anesthetized rat
Type: in vivo
Conditions: continuous infusion through caudal vein for 30 minutes, dose not given; for the increase rate of the cauda equina blood flow: observed until 30 minutes after, laser-Doppler flowmetry; for decrease of the blood pressure: systemic blood pressure from left carotid artery
Method: The common procedure based on the fundamental biological means was used as all procedures. Furthermore, the measuring method of the present invention was modified to improve the accuracy and/or sensitivity of measurement for evaluating the compound of the present invention. The detailed experimental method was as follows. • (i) The measurement of the cauda equina blood flow and the blood pressure Experiment: 1.5g/kg of urethane was administered intraperitoneally to the rat to be anesthetized, and the catheter, which is for measurement of blood pressure and ventricular rate, was placed in left carotid artery in supine position. The rat was reversed to prone position and the lumbar part was incised in the median line. The laminectomy was given to the fifth lumbar vertebra and the spinal cord (cauda equina) was exposed. The cauda equina blood flow was measured by the laser-Doppler flowmetry (OMEGAFLD FLO-NI and ADVANCE LASER FLOWMETER ALF21N, OMEGA WAVE Inc.) through a noncontact probe (ST-N type, OMEGA WAVE Inc.) and recorded with LINEARCORDER (Graphtech). The systemic blood pressure and the ventricular rate were measured from a left carotid artery with amplifier for the pressure measurement (GOULD) through a pressure transducer and recorded with LINEARCORDER (Graphtech).
After confirming each parameter of blood pressure, ventricular rate and blood flow was stabilized, the test compound was administrated by continuous infusion through the winged needle placed in caudal vein for 30 minutes. It observed until 30 minutes after the administration and the increase rate of the cauda equina blood flow was calculated. The increase rate of the cauda equina blood flow (%)=(B−A)/A×100 • A: the cauda equina blood flow before the administration of the test compound • B: the cauda equina blood flow after the administration of the test compound

SMILES | the increase rate of the cauda equina blood flow [%] | decrease of the blood pressure [mmHg]
O=C(O)c1csc(SCCN2C(=O)OC[C@@H]2/C=C/[C@@H](O)C2(CCCCF)CCC2)n1 [compound 8-1, 2-{[2-((4S)-4-{(1E,3R)-3-[1-(4-fluorobutyl)cyclobutyl]-3-hydroxy-1-propenyl}-2-oxo-1,3-oxazolidin-3-yl)ethyl]sulfanyl}-1,3-thiazole-4-carboxylic acid] | 35 | 6
CC(O)(C/C=C/[C@H]1CCC(=O)[C@@H]1CCSc1nc(C(=O)O)cs1)CC1CCCCC1 (stereo partly drawn) [compound 53, 2-[(2-{(1R,2R)-2-[(1E)-5-cyclohexyl-4-hydroxy-4-methyl-1-pentenyl]-5-oxocyclopentyl}ethyl)sulfanyl]-1,3-thiazole-4-carboxylic acid] | 31 | 10
